Earlier results as cited in patent US11622991B2, “Protocol for treatment of lupus nephritis” (Aurinia Pharmaceuticals Inc., priority 2017, dated 2023).

System: lupus nephritis
Settings: standard of care for LN; cited from earlier work

SMILES	partial remission, cases
O=P1(N(CCCl)CCCl)NCCCO1 (centres unmarked) [cyclophosphamide]	approximately 50%
COc1c(C)c2c(c(O)c1C/C=C(\C)CCC(=O)OCCN1CCOCC1)C(=O)OC2 [mycophenolate mofetil]	approximately 50%
